# What was measured:
# CD-HFD fed C57BL/6J mice = test: AMPK agonist A-769662 in CD-HFD-induced NASH, C57BL/6J mice; assay type: in vivo
# Procedure: FIGS. 4A-4L. Both an AMPK agonist and a caspase-6 inhibitor therapeutically improve liver damage. FIG. 4A-4I. C57BL/6J mice were fed CD-HFD for 6 weeks, followed by intraperitoneally injection of 25 mg/kg A-769662 or vehicle daily for 2 weeks while continuous CD-HFD. FIG. 4A. Liver sections stained as indicated: TUNEL and DAPI. In the merged image section, the different stains correspond to the grayscale shades as indicated in the single stained images to the left. Scale bar=50 μm. FIG. 4B. Quantification of TUNEL-positive nuclei per field in FIG. 4A. n=7. FIG. 4C-4E. Serum ALT (FIG. 4C), AST (FIG. 4D) and ALP (FIG. 4E). n=7. FIG. 4F. H&E and Sirius red staining of liver sections as indicated. Scale bar=100 μm. FIG. 4G. Quantification of liver fibrosis area (% of total area) in FIG. 4F. n=7. FIG. 4H. Liver hydroxyproline. n=8. FIG. 4I. Expression of Tgfb, Timp1, Col1a1, Col3a1, Pdgfa, Pdgfb, Pdgfra and Ddr2 in livers. n=8. *, P<0.05, Student's unpaired t test. FIGS. 4J-4L. Flox and LAKO mice were fed CD-HFD for 6 weeks, followed by intraperitoneally injection of 5 mg/kg VEID (SEQ ID NO: 71) or vehicle every other day for 2 weeks while continuous feeding. FIG. 4J. Liver sections stained as indicated (TUNEL and DAPI); in the merged image sections, the different stains correspond to the grayscale shades as indicated in the single stained images to the left. Scale bar=50 μm. FIG. 4K. Quantification of TUNEL-positive nuclei per field in FIG. 4J. n=5-6. FIG. 4L. Serum ALT. n=5-6. Mean±SEM. *, P<0.05, two-way ANOVA. FIG. 4 discloses “VEID” as SEQ ID NO: 71.
# FIGS. 5A-5K. AMPK phosphorylates caspase-6 to inhibit its cleavage and activation. FIG. 5A. Primary hepatocytes were pretreated 40 μM A-769662 for 1 hr, then treated 30 μg/ml CHX and 50 ng/ml TNFα for 2 hrs. IB analysis of cell lysates. n=3. Mean±SD. *, P<0.05, two-way ANOVA. FIG. 5B. Primary hepatocytes were pretreated 40 μM A-769662 for 1 hr, then treated 250 μM BSA-conjugated palmitic acid (PA) for 2 hrs. Cell lysates were subject to caspase-6 activity assay. Mean±SD. *, P<0.05. FIG. 5C. Caspase-6 Ser^257 locates within AMPK substrate motif. FIG. 5C. discloses SEQ ID NOS 57-63, respectively, in order of appearance. FIG. 5D. In vitro kinase assay using recombinant caspase-6, and recombinant AMPKα1β1γ1 or AMPKα2β1γ1 active kinase. FIG. 5E. Alignment of caspase-6 sequence. FIG. 5E. discloses SEQ ID NOS 64-67, respectively, in order of appearance. FIG. 5F. HEK293T cells overexpressing caspase-6-myc WT, S^257A, S^257D or S^257E mutant were treated with 10 μg/ml CHX and 25 ng/ml TNFα for 2 hrs. IB analysis of cell lysates. FIGS. 5G-5J. C57BL/6J mice were fed CD-HFD for 6 weeks, followed by intraperitoneally injection of 25 mg/kg A-769662 or vehicle daily for 2 weeks while continuous CD-HI-D. Mice were sacrificed 6 hrs after last injection. FIG. 5G. IB analysis of liver lysates. n=5. FIG. 5H. Liver lysates were subject to caspase-6 activity assay. n=7. FIG. 5I. Liver sections stained as indicated therein (aCasp6 and DAPI); in the merged image sections, the different stains correspond to the grayscale shades as indicated in the single stained images to the left. Scale bar=50 μm. FIG. 5J. Quantification of aCasp6 staining per field in FIG. 5I. n=7. Mean±SEM. *, P<0.05, Student's unpaired t test. FIG. 5K. IB analysis of liver lysates from C57BL/6J mice fed ND or CD-HFD. Note: AMPK and pAMPK blots are the same as in FIG. 1B.
# FIGS. 13A-13I. A-769662 improves liver damage through AMPK activation in hepatocytes in NASH. C57BL/6J mice were fed with CD-HFD for 8 weeks. After 6 weeks of CD-HFD feeding, mice were intraperitoneally injected with 25 mg/kg A-769662 or vehicle daily for 2 weeks along with continuous CD-HFD feeding. FIG. 13A. Schematic diagram of experimental design. FIG. 13B-13C. Body weight (FIG. 13B) and liver weight (FIG. 13C) of indicated mice. n=7. FIG. 13D. Measurement of liver triglyceride (TG) of indicated mice. n=7. FIG. 13E. […]
# [1] = test system: C57BL/6J mice fed 45% HFD; details: 30 mg/kg twice per day for 7 days; cited from earlier work
# [2] = 25 mg/kg i.p. daily for 2 weeks, CD-HFD
# [3] = 25 mg/kg i.p. daily for 2 weeks, CD-HFD, sacrificed 6 hrs after last injection
# [4] = 25 mg/kg i.p. once per day for two weeks after 6 weeks CD-HFD
structure (smiles),measurement,setting,value
N#Cc1c(O)c2c(-c3ccc(-c4ccccc4O)cc3)csc2[nH]c1=O [A-769662],"hepatic fibrosis (Sirius red fibrosis area, liver hydroxyproline)",CD-HFD fed C57BL/6J mice; 25 mg/kg i.p. daily for 2 weeks after 6 weeks CD-HFD,attenuated
same,expression of Col1a1 in liver,CD-HFD fed C57BL/6J mice; [2],significantly reduced
same,expression of Col3a1 in liver,CD-HFD fed C57BL/6J mice; [2],significantly reduced
same,expression of Ddr2 in liver,CD-HFD fed C57BL/6J mice; [2],without effect
same,expression of Pdgfa in liver,CD-HFD fed C57BL/6J mice; [2],significantly reduced
same,expression of Pdgfb in liver,CD-HFD fed C57BL/6J mice; [2],significantly reduced
same,expression of Pdgfra in liver,CD-HFD fed C57BL/6J mice; [2],significantly reduced
same,expression of Tgfb in liver,CD-HFD fed C57BL/6J mice; [2],without effect
same,expression of inflammation marker gene Adgre1 in liver,CD-HFD fed C57BL/6J mice; [2],without effect
same,expression of inflammation marker gene Ccl2 in liver,CD-HFD fed C57BL/6J mice; [2],without effect
same,aCasp6 (active caspase-6) staining of liver sections,"CD-HFD fed C57BL/6J mice; 25 mg/kg i.p. daily for 2 weeks, CD-HFD-induced NASH",decreased
same,caspase-6 activity in vivo (liver lysates),CD-HFD fed C57BL/6J mice; [3],decreased
same,procaspase-6 Ser257 phosphorylation (IB of liver lysates),CD-HFD fed C57BL/6J mice; [3],significantly increased
same,hepatic TG,CD-HFD fed C57BL/6J mice; [4],no effect
same,"liver damage (serum ALT, AST, ALP)",CD-HFD fed C57BL/6J mice; [4],improved
same,number of apoptotic cells (TUNEL-positive nuclei per field),CD-HFD fed C57BL/6J mice; [4],significantly reduced
same,hepatic triglycerides,[1],reduced
